Measurements from PMC5287478, “Quantitative Affinity Determination by Fluorescence Anisotropy Measurements of Individual Nanoliter Droplets” (Analytical Chemistry, 2017).

Key:
[1] = target: T1, HumRadA18 (Pyrococcus furiosus, UniProt O74036, D220A/D267M/E219S/H199N/H264F/I169M/I200V/I222M/K198D/K221M/K223V/K263R/L213Q/L225S/L274E/Q216Y/V168A/V202Y/V215L/V232Y/W170Y/Y201A/Y275F); assay: Competition assay with BRC4^fl in nanoliter droplets; format: binding
T1 construct: made in house; host or cells: E. coli BL21(DE3) pUBS520, pBAT plasmid

[2] = Retention of BRC4fl in droplets (leakage into oil phase); format: physicochemical; details: HFE 7500 with 1% w/v AZ2C fluorosurfactant, approx. 1 minute to detection point
Experimental: AZ2C fluoroLsurfactant (made inLhouse according to a previously published method).4 The time to reach the detection point (approx. 1 minute) was sufficient for significant leakage of BRC4fl from the droplet. Addition of additives such as BSA has been found effective in increasing the effective solubility of reagents.5 BSA was titrated using the same droplet titration technique up to 1.2%. The fluorescence intensity measured at the detection point was […]
increase retention of the fluorophore in the droplet. Anisotropy reached a steadyLstate value when BSA was present at concentrations above 0.2%. Although the linear increase of […]
presence of BSA concentrations above 1% made droplet formation more difficult, because of the increased viscosity of the aqueous phase and the formation of BSA vesicles. Therefore 1% BSA was chosen as a compromise between these effects and all experiments were […]
Figure S4. Influence of BSA concentration on the retention of BRC4fl within the droplet. (A) Intensity is linearly increasing with BSA concentration. (B) Fluorescence anisotropy converges towards a steadyLstate value above a threshold concentration of BSA

[3] = tested on: RAD51; details: 30–35 amino acid peptide corresponding to BRC repeat 4; cited from earlier work
Excerpt: We explore the potential of single droplet anisotropy measurements for the study of structure–activity relationships for protein–protein interactions in nanoliter volumes. Specifically, we address the interactions of the BRC4 peptide, a reductionist model of the recombination mediator BRCA2, with mutants of an archaeal surrogate of the recombinase RAD51.[10] […] Inhibit ...

CC[C@H](C)[C@H](NC(=O)[C@H](CCCCN)NC(=O)[C@@H](NC(=O)[C@H](CCCCN)NC(=O)[C@H](CCCCN)NC(=O)CNC(=O)[C@H](CO)NC(=O)[C@H](C)NC(=O)[C@@H](NC(=O)[C@H](Cc1c[nH]cn1)NC(=O)[C@H](Cc1ccccc1)NC(=O)CNC(=O)[C@H](CC(C)C)NC(=O)[C@H](CC(C)C)NC(=O)[C@@H](NC(=O)[C@@H]1CCCN1C(=O)[C@H](CCC(=O)O)NC(=O)[C@H](CCCCN)NC(=O)[C@H](CSC1CC(=O)N(c2ccc3c(c2)C(=O)OC32c3ccc(O)cc3Oc3cc(O)ccc32)C1=O)NC(C)=O)[C@@H](C)O)[C@@H](C)O)C(C)C)C(=O)N[C@@H](C)C(=O)N[C@@H](CCCCN)C(=O)N[C@@H](CCC(=O)O)C(=O)N[C@@H](CO)C(=O)N[C@@H](CC(C)C)C(=O)N[C@@H](CC(=O)O)C(=O)N[C@@H](CCCCN)C(=O)N[C@H](C(=O)N[C@@H](CCCCN)C(=O)N[C@@H](CC(N)=O)C(=O)N[C@@H](CC(C)C)C(=O)N[C@@H](Cc1ccccc1)C(=O)N[C@@H](CC(=O)O)C(=O)N[C@@H](CCC(=O)O)C(=O)N[C@@H](CCCCN)C(=O)N[C@@H](CCC(=O)O)C(=O)N[C@@H](CCC(N)=O)C(N)=O)C(C)C (stereo partly drawn) [BRC4]
Kd [1]: 45 nM | leakage from droplet [2]: high propensity for leakage | RAD51 activity [3]: block RAD51 activity
